These are literature values, as cited in patent US8067401B2, “Compounds and compositions for treating infection” (priority 2007, dated 2011).

For this data set, the system named is HIV-1.

Regarding Prunellin, the “minimum inhibition concentration against HIV-1 in vitro” value was 2.2 µg/mL.
